From patent US5869500A, “Pyridone compounds useful in treating Alzheimer's disease” (Hoffmann-La Roche Inc., priority 1996, dated 1999)

Experiments:
[1] = system: Aβ production in HEK cells over-expressing Wild type β-APP; experiment: Aβ production inhibition, sandwich-ELISA in HEK cells which over-express Wild type β-APP (SE-WT); type: cell-based, human; settings: Homo sapiens; for IC50: HEK293, based on the respective plateau of maximum inhibition; for Emax: HEK293, maximum inhibition plateau, read-out: SE-WT max. inhibition %
Method: The effect of test substances on the inhibition of Aβ-amyloid production can be measured in the supernatant of cell cultures of β-APP expressed cells using ELISA tests or other quantitative determination methods for β-APP degradation products. Typically, 8×10^5 cells (e.g. HEK cells, which express recombinant human β-APP variants) are plated out in each well of a culture dish having 24 wells in growth media such as e.g. OPTIMEM (Gibco) and the test compound is then added. After an incubation period of 24 to 48 hours at 37° C. in a 10% CO2 atmosphere the supernatant is removed from the cell cultures and the β-APP degradation products (e.g. Aβ or β-[…]) are determined with the aid of ELISA (or sandwich ELISA) analysis or by means of quantitative immunoprecipitation (after metabolic radiolabelling of the cell proteins). Typically, 300 μl of the cell supernatant are tested according to the state of the art for ELISA tests in culture dishes having 96 wells. In the case of sandwich ELISA for Aβ, the binding antibody can be directed against the first 16 amino acids of Aβ-peptide (e.g. 6E10 Senetek, Maryland Heights, Mo.) and the detection antibody can be directed against amino acids 17-40 or 17-42 of Aβ and carries a detection system such as e.g. peroxidase. A simple ELISA test with an antibody, e.g. 22C11 (Boehringer Mannheim), can be used as the test for […]; the second antibody can be an anti-(mouse) Ig having a detection system, such as e.g. peroxidase. The peroxidase reaction can be carried out e.g. using a TMB substrate (BioRAD) and the measurements can be carried out at 650 nm using an ELISA reading apparatus. […] SE-SFAD signifies the Aβ production inhibition measured using sandwich-ELISA in HEK cells, SFAD signifies over-expressed mutated β-APP, and SE-WT signifies the Aβ production inhibition measured using sandwich-ELISA in HEK cells which over-express Wild type β-APP. The IC50 values are based on the respective plateau of maximum inhibition.

[2] = system: Aβ production in HEK cells over-expressing mutated β-APP (SFAD); experiment: Aβ production inhibition, sandwich-ELISA in HEK cells, over-expressed mutated β-APP (SE-SFAD); type: cell-based, human; settings: Homo sapiens, HEK293, HEK cells; for IC50: based on the respective plateau of maximum inhibition; for Emax: maximum inhibition plateau, read-out: SE-SFAD max. inhibition %
How it was run: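 HEK cells expressing recombinant human wild-type or mutated (SFAD) β-APP treated with compound for 24 to 48 hours at 37° C, 10% CO2. IC50 based on plateau of maximum inhibition.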

| SMILES | IC50 [1] [nM] | Emax [1] [%] | IC50 [2] [µM] | Emax [2] [%] |
| --- | --- | --- | --- | --- |
| COC(=O)c1cc(-c2ccccc2)c(=O)n2ccc3ccc(Cl)cc3c12 [Compound 36, Methyl 10-chloro-4-oxo-3-phenyl-4H-pyrido [2,1-a]isoquinoline-1-carboxylate] | 1000 | 60 | 2.8 | 40 |
| COCCN(CCOC)C(=O)c1cc(-c2ccc(OCc3ccccc3)cc2)c(=O)n2ccc3ccsc3c12 [Compound 67, 8-(4-Benzyloxy-phenyl)-7-oxo-7H-thieno[2,3-a]quinolizine-10-carboxylic acid bis-(2-methoxy-ethyl)-amide] | 600 | 80 | 0.8 | 70 |
| CCN(CCOC)C(=O)c1cc(-c2ccccc2)c(=O)n2ccc3ccc(Cl)cc3c12 [Compound 42, 10-Chloro-4-oxo-3-phenyl-4H-pyrido[2,1-a]isoquinoline-1-carboxylic acid ethyl-(2-methoxy-ethyl)-amide] | 900 | 100 | 3 | 100 |
| CC(C)OC1CCN(C(=O)c2cc(-c3ccccc3)c(=O)n3ccc4ccsc4c23)C1 (stereo not drawn) [Compound 51, 10-(3-Isopropoxy-pyrrolidine-1-carbonyl)-8-phenyl-thieno[2,3-a]-quinolizin-7-one] | 24000 | 100 | 60 | 100 |
| CC(=O)c1cc(-c2ccccc2)c(=O)n2ccc3ccsc3c12 [Compound 58, 10-Acetyl-8-phenyl-thieno[2,3-a]quinolizine-7-one] | 200 | 40 | 1 | 60 |
| CN(C)C(=O)COC(=O)c1cc(-c2ccccc2)c(=O)n2ccc3ccsc3c12 [Compound 30, Dimethyl-carbamoylmethyl 7-oxo-8-phenyl-7H-thieno[2,3-a]-quinolizine-10-carboxylate] | 5000 | 60 | 5 | 25 |
| CCCOC1CCN(C(=O)c2cc(-c3ccccc3)c(=O)n3ccc4ccsc4c23)C1 (stereo not drawn) [Compound 10, 8-Phenyl-10-(3-propoxy-pyrrolidine-1-carbonyl)-thieno[2,3-a]-quinolizin-7-one] | 7000 | 50 | 6.6 | 50 |
| COCCN(C(=O)c1cc(-c2ccc(OCc3ccccc3)cc2)c(=O)n2ccc3cc(Br)sc3c12)c1ccccc1 [Compound 77, 8-(4-Benzyloxy-phenyl)-2-bromo-7-oxo-7H-thieno[2,3-a]quinolizine-10-carboxylic acid (2-methoxy-ethyl)-phenyl-amide] | 200 | 100 | 0.2 | 80 |
| CN(CC1CCCO1)C(=O)c1cc(-c2ccccc2)c(=O)n2ccc3ccsc3c12 (stereo not drawn) [Compound 24, 7-Oxo-8-phenyl-7H-thieno[2,3-a]quinolizine-10-carboxylic acid methyl-(tetrahydrofuran-2-yl-methyl)-amide] | 10000 | 60 | 7 | 40 |
| COC1CN(C(=O)c2cc(-c3ccccc3)c(=O)n3ccc4ccc(Cl)cc4c23)C1 [Compound 40, 10-Chloro-1-(3-methoxy-azetidine-1-carbonyl)-3-phenyl-pyrido-[2,1-a]isoquinolin-4-one] | 7000 | 70 | 6.8 | 100 |
| COC[C@H]1CCCN1C(=O)c1cc(-c2ccccc2)c(=O)n2ccc3ccsc3c12 [Compound 35, 10-(2-(R)-Methoxymethyl-pyrrolidine-1-carbonyl)-8-phenyl-thieno-[2,3-a]quinolizin-7-one] | 3000 | 65 | 6 | 50 |
| O=C1CC[C@H](COC(=O)c2cc(-c3ccccc3)c(=O)n3ccc4ccsc4c23)N1 [Compound 3, 5-Oxo-pyrrolidin-2-(R)-yl-methyl 7-oxo-8-phenyl-7H-thieno[2,3-a]-quinolizine-10-carboxylate] | 1000 | 60 | 9.5 | 30 |
